# Data: ChEMBL document CHEMBL1909294, “Translating clinical findings into knowledge in drug safety evaluation--drug induced liver injury prediction system (DILIps)” (PLoS Comput Biol, 2011)
# Assays:
# Hepatotoxicity [1] = system: Hepatotoxicity;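 for HepSE bilirubinemia: bilirubinemia hepatic side effect score drawn from the DILIps training data, a prediction system for drug-induced liver injury; call rule not given here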;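 for HepSE cholecystitis: Cholecystitis-related hepatic side effect score drawn from the DILIps (drug-induced liver injury prediction) training data set; call rule not given here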;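 for HepSE cholelithiasis: hepatic side effect score for cholelithiasis, drawn from the DILIps training data for predicting drug-induced liver injury; call rule not given here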;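 for HepSE cirrhosis: cirrhosis hepatic side effect score taken from the DILIps (drug-induced liver injury prediction) training set; call rule not given here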;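 for HepSE elevated liver function tests: hepatic side effect score for raised liver function tests, as recorded in the DILIps training set used for predicting drug-induced liver injury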; for HepSE hepatic failure: call rule not given here;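 for HepSE hepatomegaly: hepatic side effect score for hepatomegaly, taken from the training set of the DILIps drug-induced liver injury prediction system; call rule not given here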
# Hepatotoxicity [2] = system: Hepatotoxicity; remark: listed apart in the source;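 for HepSE bilirubinemia: bilirubinemia hepatic side effect score drawn from the DILIps training data, a prediction system for drug-induced liver injury; call rule not given here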;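 for HepSE cholecystitis: Cholecystitis-related hepatic side effect score drawn from the DILIps (drug-induced liver injury prediction) training data set; call rule not given here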;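 for HepSE cholelithiasis: hepatic side effect score for cholelithiasis, drawn from the DILIps training data for predicting drug-induced liver injury; call rule not given here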;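 for HepSE cirrhosis: cirrhosis hepatic side effect score taken from the DILIps (drug-induced liver injury prediction) training set; call rule not given here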;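 for HepSE elevated liver function tests: hepatic side effect score for raised liver function tests, as recorded in the DILIps training set used for predicting drug-induced liver injury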; for HepSE hepatic failure: call rule not given here
# Hepatotoxicity [3] = system: Hepatotoxicity; remark: listed apart in the source;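 for HepSE bilirubinemia: bilirubinemia hepatic side effect score drawn from the DILIps training data, a prediction system for drug-induced liver injury; call rule not given here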;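 for HepSE cholecystitis: Cholecystitis-related hepatic side effect score drawn from the DILIps (drug-induced liver injury prediction) training data set; call rule not given here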;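 for HepSE cholelithiasis: hepatic side effect score for cholelithiasis, drawn from the DILIps training data for predicting drug-induced liver injury; call rule not given here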;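 for HepSE cirrhosis: cirrhosis hepatic side effect score taken from the DILIps (drug-induced liver injury prediction) training set; call rule not given here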;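 for HepSE elevated liver function tests: hepatic side effect score for raised liver function tests, as recorded in the DILIps training set used for predicting drug-induced liver injury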; for HepSE hepatic failure: call rule not given here
# Hepatotoxicity [4] = system: Hepatotoxicity; remark: listed apart in the source;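 for HepSE bilirubinemia: bilirubinemia hepatic side effect score drawn from the DILIps training data, a prediction system for drug-induced liver injury; call rule not given here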;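 for HepSE cholecystitis: Cholecystitis-related hepatic side effect score drawn from the DILIps (drug-induced liver injury prediction) training data set; call rule not given here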;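 for HepSE cholelithiasis: hepatic side effect score for cholelithiasis, drawn from the DILIps training data for predicting drug-induced liver injury; call rule not given here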;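 for HepSE cirrhosis: cirrhosis hepatic side effect score taken from the DILIps (drug-induced liver injury prediction) training set; call rule not given here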;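 for HepSE elevated liver function tests: hepatic side effect score for raised liver function tests, as recorded in the DILIps training set used for predicting drug-induced liver injury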; for HepSE hepatic failure: call rule not given here
# Hepatotoxicity [5] = system: Hepatotoxicity; remark: listed apart in the source; for HepSE hepatic failure: call rule not given here
# Hepatotoxicity [6] = system: Hepatotoxicity; remark: listed apart in the source; for HepSE hepatic failure: call rule not given here
# Hepatotoxicity [7] = system: Hepatotoxicity; remark: listed apart in the source
# Hepatotoxicity [8] = system: Hepatotoxicity; remark: listed apart in the source
# Hepatotoxicity [9] = system: Hepatotoxicity; remark: listed apart in the source
# Hepatotoxicity [10] = system: Hepatotoxicity; remark: listed apart in the source
# Hepatotoxicity [11] = system: Hepatotoxicity; remark: listed apart in the source
# Hepatotoxicity [12] = system: Hepatotoxicity; remark: listed apart in the source
# Hepatotoxicity [13] = system: Hepatotoxicity; remark: listed apart in the source
# Hepatotoxicity [14] = system: Hepatotoxicity; remark: listed apart in the source
SMILES,HepSE_bilirubinemia (Hepatotoxicity [1]),HepSE_cholecystitis (Hepatotoxicity [2]),HepSE_cholelithiasis (Hepatotoxicity [3]),HepSE_cirrhosis (Hepatotoxicity [4]),HepSE_elevated liver function tests (Hepatotoxicity [5]),HepSE_hepatic failure (Hepatotoxicity [6]),HepSE_hepatic necrosis (Hepatotoxicity [7]),HepSE_hepatitis (Hepatotoxicity [8]),HepSE_hepatomegaly (Hepatotoxicity [9]),HepSE_jaundice (Hepatotoxicity [10]),HepSE_liver disease (Hepatotoxicity [11]),HepSE_liver fatty (Hepatotoxicity [12]),HepSE_liver function tests abnormal (Hepatotoxicity [13]),HepSE_Combined Scores (Hepatotoxicity [14]),other results
CC(C)(C)NCC(O)c1ccc(O)c(CO)c1 (configuration not stated) [ALBUTEROL],–,–,–,–,–,–,–,–,–,–,–,–,–,–,HepSE_bilirubinemia (Hepatotoxicity [1]; Liver): 0; HepSE_cholecystitis (Hepatotoxicity [2]; Liver): 0; HepSE_cholelithiasis (Hepatotoxicity [3]; Liver): 0; HepSE_cirrhosis (Hepatotoxicity [4]; Liver): 0; HepSE_elevated liver function tests (Hepatotoxicity [5]; Liver): 0; HepSE_hepatic failure (Hepatotoxicity [6]; Liver): 0; HepSE_hepatic necrosis (Hepatotoxicity [7]; Liver): 0; HepSE_hepatitis (Hepatotoxicity [8]; Liver): 0; HepSE_hepatomegaly (Hepatotoxicity [9]; Liver): 0; HepSE_jaundice (Hepatotoxicity [10]; Liver): 0; HepSE_liver disease (Hepatotoxicity [11]; Liver): 0; HepSE_liver fatty (Hepatotoxicity [12]; Liver): 0; HepSE_liver function tests abnormal (Hepatotoxicity [13]; Liver): 0; HepSE_Combined Scores (Hepatotoxicity [14]; Liver): 0
C[C@@H]1C[C@H]2[C@H]3[C@H]([C@@H](O)C[C@]2(C)[C@@]1(O)C(=O)CO)[C@@]1(C)C=CC(=O)C=C1C[C@H]3Cl [ALCLOMETASONE],0,0,0,0,0,0,0,0,0,0,0,0,0,0,–
COc1cc2nc(N(C)CCCNC(=O)C3CCCO3)nc(N)c2cc1OC (configuration not stated) [ALFUZOSIN],0,0,0,0,0,0,0,0,0,1,1,0,0,2,–
Oc1ncnc2[nH]ncc12 [ALLOPURINOL],1,0,0,0,0,0,1,1,1,1,0,0,0,5,–
CN(C)CCc1c[nH]c2ccc(CS(=O)(=O)N3CCCC3)cc12 [ALMOTRIPTAN],0,0,0,0,0,0,0,0,0,0,0,0,0,0,–
Cc1[nH]cnc1CN1CCc2c(c3ccccc3n2C)C1=O [ALOSETRON],0,1,0,0,0,0,0,1,0,1,0,0,0,3,–
Cc1nnc2n1-c1ccc(Cl)cc1C(c1ccccc1)=NC2 [ALPRAZOLAM],0,0,0,0,0,1,0,1,0,1,0,0,0,3,–
CCCCC[C@H](O)/C=C/[C@H]1[C@H](O)CC(=O)[C@@H]1CCCCCCC(=O)O [ALPROSTADIL],1,0,0,0,0,0,0,0,0,0,0,0,0,1,–
NC12CC3CC(CC(C3)C1)C2 [AMANTADINE],0,0,0,0,0,0,0,0,0,0,0,0,0,0,–
CC[N+](CC)(CCNC(=O)C(=O)NCC[N+](CC)(CC)Cc1ccccc1Cl)Cc1ccccc1Cl [AMBENONIUM],0,0,0,0,0,0,0,0,0,0,0,0,0,0,–
COC(c1ccccc1)(c1ccccc1)[C@H](Oc1nc(C)cc(C)n1)C(=O)O [AMBRISENTAN],0,0,0,0,0,0,0,0,0,0,0,0,0,0,–
CC(=O)OCC(=O)[C@@]12OC3(CCCC3)O[C@@H]1C[C@H]1[C@@H]3CCC4=CC(=O)C=C[C@]4(C)[C@@]3(F)[C@@H](O)C[C@@]12C [AMCINONIDE],0,0,0,0,0,0,0,0,0,0,0,0,0,0,–
NCCCNCCSP(=O)(O)O [AMIFOSTINE],–,–,–,–,–,–,–,–,–,–,–,–,–,–,HepSE_bilirubinemia (Hepatotoxicity [1]; Liver): 0; HepSE_cholecystitis (Hepatotoxicity [2]; Liver): 0; HepSE_cholelithiasis (Hepatotoxicity [3]; Liver): 0; HepSE_cirrhosis (Hepatotoxicity [4]; Liver): 0; HepSE_elevated liver function tests (Hepatotoxicity [5]; Liver): 0; HepSE_hepatic failure (Hepatotoxicity [6]; Liver): 0; HepSE_hepatic necrosis (Hepatotoxicity [7]; Liver): 0; HepSE_hepatitis (Hepatotoxicity [8]; Liver): 0; HepSE_hepatomegaly (Hepatotoxicity [9]; Liver): 0; HepSE_jaundice (Hepatotoxicity [10]; Liver): 0; HepSE_liver disease (Hepatotoxicity [11]; Liver): 0; HepSE_liver fatty (Hepatotoxicity [12]; Liver): 0; HepSE_liver function tests abnormal (Hepatotoxicity [13]; Liver): 0; HepSE_Combined Scores (Hepatotoxicity [14]; Liver): 0
NCC[C@H](O)C(=O)N[C@@H]1C[C@H](N)[C@@H](O[C@H]2O[C@H](CN)[C@@H](O)[C@H](O)[C@H]2O)[C@H](O)[C@H]1O[C@H]1O[C@H](CO)[C@@H](O)[C@H](N)[C@H]1O [AMIKACIN],0,0,0,0,0,0,0,0,0,0,0,0,0,0,–
N=C(N)NC(=O)c1nc(Cl)c(N)nc1N [AMILORIDE],0,0,0,0,0,0,0,0,0,1,1,0,0,2,–
NCCCCCC(=O)O [AMINOCAPROIC ACID],0,0,0,0,0,0,0,0,0,0,0,0,0,0,–
CCC1(c2ccc(N)cc2)CCC(=O)NC1=O (configuration not stated) [AMINOGLUTETHIMIDE],0,0,0,0,0,0,0,0,0,0,0,0,0,0,–
Nc1ccc(C(=O)NCC(=O)O)cc1 [AMINOHIPPURIC ACID],0,0,0,0,0,0,0,0,0,0,0,0,0,0,–
